Laboratory results as given in publication PMC7580997 (Journal of medicinal chemistry, 2019).

Legend:
BIR3 domain of cIAP1 = BIR3 domain of cIAP1 (Homo sapiens, UniProt Q13490); assay: LC-MS of protein-compound covalent adduct, cIAP1-BIR3
[1] = Solubility and chemical stability in aqueous buffer by 1H 1D NMR; assay type: physicochemical; conditions: aqueous buffer pH = 7.5, T = 25 °C
Plasma stability = assay type: in vitro ADME; conditions: mouse plasma 80% in PBS pH 7.4, 37 °C, 200 μM
HA-BIR3 of XIAP = HA-BIR3 of XIAP (Homo sapiens, UniProt P98170); assay: Western blot; assay type: cell-based; conditions: HEK293T, 10 μM, 6 h
SK-MEL-28 cells = assay: IncuCyte S3 Caspase-3/7 apoptosis assay, SK-MEL-28; assay type: cell-based, human; conditions: SK-MEL-28, co-treatment with TNFα, nanomolar concentration
A549 cells = assay: IncuCyte S3 Caspase-3/7 apoptosis assay, A549; assay type: cell-based; conditions: nanomolar concentration

Sequence of HA-BIR3 of XIAP (P98170 253-347 limits assumed): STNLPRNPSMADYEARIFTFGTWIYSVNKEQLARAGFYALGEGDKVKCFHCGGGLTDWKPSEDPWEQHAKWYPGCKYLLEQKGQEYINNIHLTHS
Sequence of BIR3 domain of cIAP1 (Q13490 258-363 limits assumed): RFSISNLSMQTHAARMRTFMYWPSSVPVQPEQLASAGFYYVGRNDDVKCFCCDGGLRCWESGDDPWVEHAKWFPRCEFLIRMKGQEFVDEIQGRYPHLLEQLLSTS

SMILES	mass increase of cIAP1-BIR3 (covalent adduct) (BIR3 domain of cIAP1)	solubility in aqueous buffer (soluble up to) [1]	plasma stability t1/2 (Plasma stability)	stabilization of HA-BIR3 in cell (western blot band intensity) (HA-BIR3 of XIAP)	induction of apoptosis by co-treatment with TNFα (SK-MEL-28 cells)	induction of apoptosis by co-treatment with TNFα (A549 cells)
CN[C@@H](C)C(=O)N[C@@H](Cc1ccc(OS(=O)(=O)F)cc1)C(=O)N1CCC[C@H]1C(=O)N[C@@H]1CCc2c(F)cccc21 [Compound 1, 4-((S)-3-((S)-2-(((R)-4-fluoro-2,3-dihydro-1-H-inden-1-yl)carbamoyl)pyrrolidin-1yl)-2-((S)-2-(methylamino)propanamido)-3-oxopropyl)phenyl sulfurofluoridate]	no increase in mass	–	–	–	–	–
CN[C@@H](C)C(=O)N[C@H](C(=O)N1CCC[C@H]1c1nc(C(=O)c2ccc(F)cc2)cs1)C1CCCCC1 [LCL161]	–	similar	similar	stabilized the BIR3 domain	Time- and dose-dependent apoptosis was restored	Time- and dose-dependent apoptosis was restored
CN[C@@H](C)C(=O)N[C@H]1CN(C(=O)CC(C)C)CC[C@H]2CC[C@@H](C(=O)NC(c3ccccc3)c3ccccc3)N2C1=O [AT406]	–	similar	similar	stabilized the BIR3 domain	Time- and dose-dependent apoptosis was restored	Time- and dose-dependent apoptosis was restored
